Assay results taken from patent publication EP2332917B1, “Compounds for PIM kinase inhibition and for treating malignancy” (Sygnis Bioscience GmbH & Co. KG, priority 2009, dated 2011).
Entries after “also recorded” stand apart in the source; their conditions may differ. One block for each compound: values may come before it.

Biological target: T1, PIM-1 kinase (Homo sapiens, UniProt P11309)
T1 construct: purchased Cell Signaling Technology Inc., Boston, USA
Assay: In vitro assay for PIM-1 kinase inhibition (PIM-1 Kinase Assay Kit, colorimetric ELISA readout)
Format: biochemical
Conditions: for PIM-1 kinase inhibition (result in words): increasing concentrations 0.1 to 100 µM, Fig. 1 (1.5 ng PIM-1 kinase) and Fig. 2 (2.5 ng PIM-1 kinase); for % remaining PIM-1 kinase activity: test compound at final concentration 100 µM, normalized to positive control (no test compound) = 100 % activity, 1.5 ng (A-D series) or 2.5 ng (E series) PIM-1 kinase, 200 µM ATP
Procedure: • Fig. 1: The compounds 1-chloro-5-([1,4]diazepane-1-sulfonyl)-8-propoxy-isoquinoline (compound A), 1-chloro-5-(piperazin-1-sulfonyl)-8-methoxy-isoquinoline (compound B), […] (compound C), and 1-chloro-5-([1,4]diazepane-1-sulfonyl)-6-methoxy-isoquinoline (compound D) are potent PIM kinase inhibitors. In vitro assays of PIM-1 kinase activity (1.5 ng) in the present of increasing concentrations of the compounds A, B, C or D were performed as described within example 5. An assay without additional test compound served as positive control for the assay (pos) and an assay without PIM-1 kinase served as negative assay (neg). […] Each assay result was normalized in comparison to the positive control which was defined as 100 % activity. […] In vitro assays of PIM-1 kinase activity (2.5 ng) in the present of increasing concentrations of the compound E were performed as described within example 5. An assay without additional test compound served as positive control for the assay (pos) and an assay without PIM-1 kinase served as negative assay (neg). […] Each assay result was normalized in comparison to the positive control which was defined as 100 % activity.
The in vitro assay for PIM-1 kinase inhibition was performed using the PIM-1 Kinase Assay Kit (Cell Signaling Technology Inc., Boston, USA) according to the manufacture's instruction. Briefly, 1.5 or 2.5 ng PIM-1 kinase has been dissolved in 50 µl assay buffer (25 mM Tris-Hcl (pH 7.5), 10 mM MgCl2, 5 mM beta-glycerophosphate, 0.1 mM Na3VO4, 2 mM DTT, 200 µM ATP, and 1.5 µM peptide substrate) and test compound has been added to a final concentration in a range of 0.1 to 100 µM. After 30 minutes incubation at ambient temperature the reaction was stopped by adding 50 µl Stop buffer (50 mM EDTA, pH 8) per reaction. An aliquot of 25 µl per reaction was diluted each by 75 µl water and transferred to a 96-well streptavidin-coated plate. After 60 minutes incubation and three times washing with PBS, 100 µl/well primary antibody (Phospho-Bad (Ser112) antibody, 1:1000 diluted in PBS) was added. After further 2 h incubation and three times washing with PBS, an usual colorimetric ELISA assay was performed using a HRP labeled second antibody according to the manufacture's instructions. A PIM kinase reaction without addition of a test compound served as positive control (pos) and an assay without PIM kinase served as negative control (neg). […] The PIM-1 kinase inhibition of the test compounds (1-chloro-5-([1,4]diazepane-1-sulfonyl)-8-propoxy-isoquinoline (compound A), 1-chloro-5-(piperazin-1-sulfonyl)-8-methoxy-isoquinoline (compound B), 1-methyl-5-([1,4]diazepane-1-sulfonyl)-8-methoxy-isoquinoline (compound C), and 1-chloro-5-([1,4]diazepane-1-sulfonyl)-6-methoxy-isoquinoline (compound D)) was measured in a first series of assays, and the one of the compound 5-([1,4]diazepane-1-sulfonyl)-8-methoxy-isoquinoline (compound E) was measured in a second series of assays. Within each series of assays the measured PIM-1 kinase activity was normalized in comparison to the positive control (pos) which was defined as 100 % activity. […] The table below summarizes the percentage of the remaining PIM-1 kinase activity in the presence of the test compounds in a final concentration of 100 µM.

T1 sequence (P11309 whole entry): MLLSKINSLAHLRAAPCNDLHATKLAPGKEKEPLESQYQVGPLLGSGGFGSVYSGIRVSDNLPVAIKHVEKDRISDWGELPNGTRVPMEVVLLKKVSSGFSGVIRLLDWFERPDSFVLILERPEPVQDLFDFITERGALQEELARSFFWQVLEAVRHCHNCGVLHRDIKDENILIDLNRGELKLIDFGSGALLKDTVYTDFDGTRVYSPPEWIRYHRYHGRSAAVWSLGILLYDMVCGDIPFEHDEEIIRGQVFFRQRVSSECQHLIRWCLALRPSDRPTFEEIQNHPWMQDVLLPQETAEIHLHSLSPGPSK

SMILES: COc1ccc(S(=O)(=O)N2CCNCC2)c2ccnc(Cl)c12 [B, 1-chloro-5-(piperazin-1-sulfonyl)-8-methoxy-isoquinoline]
PIM-1 kinase inhibition (result in words): potent PIM-1 kinase inhibitors; also recorded: potent PIM inhibitory effect
% remaining PIM-1 kinase activity: 33%

SMILES: CCCOc1ccc(S(=O)(=O)N2CCCNCC2)c2ccnc(Cl)c12 [Compound A, 1-chloro-5-([1,4]diazepane-1-sulfonyl)-8-propoxy-isoquinoline]
PIM-1 kinase inhibition (result in words): potent PIM-1 kinase inhibitors; also recorded: potent PIM inhibitory effect
% remaining PIM-1 kinase activity: 23%

SMILES: COc1ccc2c(Cl)nccc2c1S(=O)(=O)N1CCCNCC1 [D, 1-chloro-5-([1,4]diazepane-1-sulfonyl)-6-methoxy-isoquinoline]
PIM-1 kinase inhibition (result in words): potent PIM-1 kinase inhibitors; also recorded: potent PIM inhibitory effect
% remaining PIM-1 kinase activity: 29%

SMILES: COc1ccc(S(=O)(=O)N2CCCNCC2)c2ccnc(C)c12 [C, 1-methyl-5-([1,4]diazepane-1-sulfonyl)-8-methoxy-isoquinoline]
PIM-1 kinase inhibition (result in words): potent PIM-1 kinase inhibitors; also recorded: potent PIM inhibitory effect
% remaining PIM-1 kinase activity: 31%

Further lines, with some results ahead:

PIM-1 kinase inhibition (result in words): at the most very weak PIM-1 inhibition
% remaining PIM-1 kinase activity: 71%
SMILES: O=S(=O)(c1cccc2cnccc12)N1CCCNCC1 [F, Fasudil, reference compound]

% remaining PIM-1 kinase activity: 46%
SMILES: COc1ccc(S(=O)(=O)N2CCCNCC2)c2ccncc12 [E, 5-([1,4]diazepane-1-sulfonyl)-8-methoxy-isoquinoline, reference compound]
PIM-1 kinase inhibition (result in words): at most a moderate PIM-1 kinase inhibition; also recorded: only weak PIM inhibitory effect

PIM-1 kinase inhibition (result in words): very potent PIM-1 inhibitor
% remaining PIM-1 kinase activity: 17%
SMILES: COc1ccc(S(=O)(=O)N2CCCNCC2)c2ccnc(Cl)c12 [G, 1-chloro-8-methoxy-Fasudil, reference compound]
